# Assay results: PMC3026871 (Cancer chemotherapy and pharmacology, 2010)
# Marks after values point to notes of the source that are not given here.
# Tests used:
# dogs = settings: the most sensitive species; cited from earlier work
# [1] = tested on: alpha-1 subunit of the GABA-A receptor; settings: ref Data on file, Millennium; cited from earlier work
# [2] = ref Data on file, Millennium, cited from earlier work
# [3] = tested on: patients with advanced solid tumors; assay: Phase 1 safety: drug-related adverse events; format: in vivo
# human tumor xenografts = settings: cited from earlier work
# [4] = tested on: patients with advanced solid tumors; assay: Clinical response; format: in vivo, human; settings: RECIST
# [5] = Plasma pharmacokinetics in patients; settings: for Cmin, Mean (SD): 6 hours after the second dose
# [6] = QID-7D 25 mg, Day 7, Dose 2, steady state, n=6
# [7] = QID-7D 35 mg, Day 7, Dose 2, steady state, n=3
# [8] = QID-7D 45 mg, Day 7, Dose 2, steady state, n=3
# [9] = QID-7D 55 mg, Day 7, Dose 2, steady state, n=4
smiles,measurement,setting,value
O=C(O)c1ccc(Nc2ncc3c(n2)-c2ccc(Cl)cc2C(c2c(F)cccc2F)=NC3)cc1 [MLN8054],highest non-severely toxic dose,dogs,20 mg/m^2/day
same,binding to the alpha-1 subunit of the GABA-A receptor,[1],high-affinity binding
same,major phase 1 biotransformation pathway,[2]; human liver S9 fractions,Hydroxylation of the azepine moiety
same,predominant mechanism of biotransformation,[2]; human liver S9 fractions,Glucuronidation of the carboxylate moiety of MLN8054 to an acyl glucuronide
same,enzymes mediating biotransformation,[2],"Glucuronidation was mediated by UGT1 and UGT2 and hydroxylation by CYP1A2, 2C9, 2C19, 2D6, and 3A4"
same,"Any drug-related adverse event, Any Grade","[3]; human, in vivo",55 (90)
same,"Any drug-related adverse event, Grade 3","[3]; human, in vivo",13 (21)
same,"Drug-related Abnormal coordination, Any Grade","[3]; human, in vivo",5 (8)
same,"Drug-related Abnormal coordination, Grade 3","[3]; human, in vivo",1 (2)
same,"Drug-related Anorexia, Any Grade","[3]; human, in vivo",8 (13)
same,"Drug-related Anorexia, Grade 3","[3]; human, in vivo",0 (0)
same,"Drug-related Asthenia, Any Grade","[3]; human, in vivo",6 (10)
same,"Drug-related Asthenia, Grade 3","[3]; human, in vivo",1 (2)
same,"Drug-related Confusion, Any Grade","[3]; human, in vivo",11 (18)
same,"Drug-related Confusion, Grade 3","[3]; human, in vivo",4 (7)
same,"Drug-related Dizziness, Any Grade","[3]; human, in vivo",7 (11)
same,"Drug-related Dizziness, Grade 3","[3]; human, in vivo",1 (2)
same,"Drug-related Fatigue, Any Grade","[3]; human, in vivo",15 (25)
same,"Drug-related Fatigue, Grade 3","[3]; human, in vivo",1 (2)
same,"Drug-related Hallucination, Any Grade","[3]; human, in vivo",1 (2)
same,"Drug-related Hallucination, Grade 3","[3]; human, in vivo",1 (2)
same,"Drug-related Hyperbilirubinemia, Any Grade","[3]; human, in vivo",3 (5)
same,"Drug-related Hyperbilirubinemia, Grade 3","[3]; human, in vivo",1 (2)
same,"Drug-related Hyperglycemia, Any Grade","[3]; human, in vivo",5 (8)
same,"Drug-related Hyperglycemia, Grade 3","[3]; human, in vivo",1 (2)
same,"Drug-related Increased blood alkaline phosphatase, Any Grade","[3]; human, in vivo",4 (7)
same,"Drug-related Increased blood alkaline phosphatase, Grade 3","[3]; human, in vivo",1 (2)
same,"Drug-related Muscular weakness, Any Grade","[3]; human, in vivo",5 (8)
same,"Drug-related Muscular weakness, Grade 3","[3]; human, in vivo",1 (2)
same,"Drug-related Nausea, Any Grade","[3]; human, in vivo",10 (16)
same,"Drug-related Nausea, Grade 3","[3]; human, in vivo",0 (0)
same,"Drug-related Peripheral motor neuropathy, Any Grade","[3]; human, in vivo",1 (2)
same,"Drug-related Peripheral motor neuropathy, Grade 3","[3]; human, in vivo",1 (2)
same,"Drug-related Somnolence, Any Grade","[3]; human, in vivo",47 (77)
same,"Drug-related Somnolence, Grade 3","[3]; human, in vivo",11(18)
same,"Drug-related Vomiting, Any Grade","[3]; human, in vivo",6 (10)
same,"Drug-related Vomiting, Grade 3","[3]; human, in vivo",0 (0)
same,drug-related grade 4 or 5 AE,"[3]; human, in vivo",no patient had a drug-related grade 4 or 5 AE
same,grade ≥ 3 mucositis or myelosuppression,"[3]; human, in vivo",No dose studied was associated with grade ≥ 3 mucositis or myelosuppression
same,patients who died within 21 days of the last dose,"[3]; nine patients, none of the deaths considered drug-related",15%
same,antitumor activity in xenograft models,human tumor xenografts,"antitumor activity in human tumor xenografts including colon, prostate, and lung cancer models"
same,plasma concentration whose maintenance is required for efficacy,"human tumor xenografts; maintained for 8–12 hours per day, human tumor xenografts grown in mice",~ 2000 nM
same,patients with stable disease for greater than 6 cycles,[4]; 3 patients,5%
same,complete or partial responses,"[4]; 5–80 mg per day for 7, 14 or 21 days",No complete or partial responses were seen
same,patients with stable disease for at least 4 cycles,"[4]; nine patients, all cohorts",15%
same,dose proportionality of AUC0-24 hr and Cmax,[5]; QD dosing,roughly dose-proportional
same,Peak-to-Trough Ratio (Cmax/Cmin),"[5]; QD dosing, all dose levels",approximately 5
same,Geometric Mean Peak-to-Trough Ratio (Cmax/Cmin),"[5]; QD-7D 5 mg, Day 7, steady state, n=4",4.99
same,Geometric Mean Peak-to-Trough Ratio (Cmax/Cmin),"[5]; QD-7D 10 mg, Day 7, steady state, n=4",5.10
same,Geometric Mean Peak-to-Trough Ratio (Cmax/Cmin),"[5]; QD-7D 20 mg, Day 7, steady state, n=3",5.09
same,Geometric Mean Peak-to-Trough Ratio (Cmax/Cmin),"[5]; QD-7D 30 mg, Day 7, steady state, n=6",4.72
same,Peak-to-Trough Ratio (Cmax/Cmin),"[5]; QD-7D 40 mg, Day 7, steady state, individual data, n=1",6.59 ^†
same,Geometric Mean Peak-to-Trough Ratio (Cmax/Cmin),[5]; [6],1.58
same,"Cmin, Mean (SD)",[5]; [6],720 (359) nM
same,Geometric Mean Peak-to-Trough Ratio (Cmax/Cmin),[5]; [7],1.32
same,"Cmin, Mean (SD)",[5]; [7],1464 (301) nM
same,Geometric Mean Peak-to-Trough Ratio (Cmax/Cmin),[5]; [8],1.45
same,"Cmin, Mean (SD)",[5]; [8],1139 (803) nM
same,Geometric Mean Peak-to-Trough Ratio (Cmax/Cmin),[5]; [9],1.44
same,"Cmin, Mean (SD)",[5]; [9],1802 (846) nM
same,Geometric Mean Peak-to-Trough Ratio (Cmax/Cmin),"[5]; QID/M-7D 55 mg, Day 7, Dose 2, steady state, n=3",1.81
same,Geometric Mean Peak-to-Trough Ratio (Cmax/Cmin),"[5]; QID/M-7D 60 mg, Day 7, Dose 2, steady state, n=6",1.80
same,Geometric Mean Peak-to-Trough Ratio (Cmax/Cmin),"[5]; QID/M-7D 70 mg, Day 7, Dose 2, steady state, n=3",1.65
same,Geometric Mean Peak-to-Trough Ratio (Cmax/Cmin),"[5]; QID/M-7D 80 mg, Day 7, Dose 2, steady state, n=3",1.35
same,Geometric Mean Peak-to-Trough Ratio (Cmax/Cmin),"[5]; QID/M-14D 60 mg, Day 14, Dose 2, steady state, n=3",1.29
same,Peak-to-Trough Ratio (Cmax/Cmin),"[5]; QID/M-21D 60 mg, Day 21, Dose 2, steady state, individual data, n=1",1.59 ^†
same,MLN8054 concentrations between the second and third doses,"[5]; QID/M-21D 60 mg, days 14 and 21, 1 patient",< 2000 nM
